# Tests used:
# Dusp6 = molecular target: T1, Dusp6 (Danio rerio, UniProt Q7T2L8); assay: Zebrafish mRNA microinjection, rescue of sef expression, dusp6; type: in vivo; settings: 5 μM BCI, shield stage
# T1 construct: expressed in transfected cells; host or cells: zebrafish embryos, 500 pg mRNA injected at the 1-2 cell stage
# T1 sequence (Q7T2L8 1-382): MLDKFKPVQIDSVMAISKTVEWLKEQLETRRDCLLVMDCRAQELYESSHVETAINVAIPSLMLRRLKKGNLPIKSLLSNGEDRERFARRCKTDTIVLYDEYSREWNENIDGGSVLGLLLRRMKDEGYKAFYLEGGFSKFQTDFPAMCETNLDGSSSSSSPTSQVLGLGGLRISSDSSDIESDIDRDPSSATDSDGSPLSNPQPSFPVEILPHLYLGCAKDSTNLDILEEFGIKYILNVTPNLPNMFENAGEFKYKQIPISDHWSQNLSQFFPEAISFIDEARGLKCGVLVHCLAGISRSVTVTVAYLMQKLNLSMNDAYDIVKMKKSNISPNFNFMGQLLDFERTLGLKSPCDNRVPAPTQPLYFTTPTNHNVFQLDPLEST
# Description: dusp6 and XFD mRNA for microinjection studies were generated as previously described (Tsang, M. et al. Development 131, 2769-79 (2004)). Both Dusp5 and Spry4 ORFs were amplified by RT-PCR from 24 hpf zebrafish with the following primers: […]
# Amplified PCR products were subcloned into pCS2+, sequenced verified and mRNAs were synthesized as described previously. Embryos were injected with 500 pg mRNA at the 1-2 cell stage, treated with 5 μM BCI at the 1000-cell stage and fixed at shield stage for in situ hybridization.
# In situ hybridization experiments were carried out as described previously (Kudoh, T. et al. Genome Res 11, 1979-87 (2001)). The probes eng3, krox20, sef, dusp6, gata4, nkx2.5, cmlc2, vmhc, scl, etsrp and hand2 were generated with a RNA labeling kit (Roche) (Tsang, M. et al. Development 131, 2769-79 (2004); Chen, J. N. et al. Development 122, 3809-16 (1996); Ekker, M., et al. Development 116, 1001-10 (1992); Liao, E. C. et al. Genes Dev 12, 621-6 (1998); Oxtoby, E. et al. Nucleic Acids Res 21, 1087-95 (1993); Pham, V. N. et al. Dev Biol 303, 772-83 (2007); Tsang, M., et al. Nat Cell Biol 4, 165-9 (2002); Yelon, D., et al. Dev Biol 214, 23-37 (1999); and Yelon, D. et al. Development 127, 2573-82 (2000)). The double fluorescent in situ hybridization protocol was described by Schoenbeck et al. (Dev Cell 13, 254-67 (2007)). […]
# Dusp3/VHR = Dusp3/VHR (Homo sapiens, UniProt P51452); assay: OMFP phosphatase assay, Dusp3/VHR; type: biochemical; settings: n=3, OMFP substrate, 15.2 nM-300 μM; read-out: mean in vitro values, VHR
# Sequence of Dusp3/VHR (P51452 whole entry): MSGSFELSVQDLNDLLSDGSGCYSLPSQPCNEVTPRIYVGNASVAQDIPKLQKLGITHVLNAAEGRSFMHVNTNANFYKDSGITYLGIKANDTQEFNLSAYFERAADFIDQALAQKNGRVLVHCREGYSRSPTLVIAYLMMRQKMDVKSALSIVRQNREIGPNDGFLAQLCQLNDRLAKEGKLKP
# Description: (§1) Enzyme activities in the presence or absence of BCI were measured using the artificial substrate […] at concentrations equal to the Km of each enzyme (Cdc25B, PTP1B & Dusp3/VHR) and at optimal pH for individual enzyme activity in a 96-well microtiter plate assay based on previously described methods by Lazo et al. (J Med Chem 44, 4042-9 (2001) and Lazo, J. S. et al. Bioorg Med Chem 14, 5643-50 (2006)). Briefly, the standard assay conditions contained 0.02 mg/ml OMFP in assay buffer (30 mM Tris-HCl (pH8.0), 75 mM NaCl, 1 mM EDTA, 0.33% BSA and 1 mM DTT). Fluorescence emission was measured after a sixty-minute incubation period at ambient temperature using a multiwell plate reader (SpectraMax m5, […]; excitation 485 nm, emission 525 nm). Sodium orthovanadate (100 μM) was used as a positive control for full phosphatase inhibition. IC50 concentrations were determined from three experiments using 10 concentrations of BCI ranging from 300 μM to 15.2 nM and GraphPad Prism 5.0 software.
# PTP1B = molecular target: T2, PTP1B (Homo sapiens, UniProt P18031); assay: OMFP phosphatase assay, PTP1B; type: biochemical; settings: n=3, OMFP substrate, 15.2 nM-300 μM; read-out: mean in vitro values, PTP1B
# T2 sequence (P18031 1-435): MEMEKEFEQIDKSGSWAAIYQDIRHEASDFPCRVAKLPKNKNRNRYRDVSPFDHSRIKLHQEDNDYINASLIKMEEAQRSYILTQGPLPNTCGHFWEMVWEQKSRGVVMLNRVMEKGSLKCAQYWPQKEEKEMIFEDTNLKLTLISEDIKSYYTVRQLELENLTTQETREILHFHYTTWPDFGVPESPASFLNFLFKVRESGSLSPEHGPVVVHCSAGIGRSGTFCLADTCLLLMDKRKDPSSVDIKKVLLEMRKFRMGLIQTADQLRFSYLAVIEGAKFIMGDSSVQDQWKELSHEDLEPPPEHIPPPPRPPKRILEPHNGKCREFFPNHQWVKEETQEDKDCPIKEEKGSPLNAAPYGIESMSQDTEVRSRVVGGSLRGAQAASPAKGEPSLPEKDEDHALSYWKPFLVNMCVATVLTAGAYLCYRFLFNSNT
# Description: as §1
smiles,measurement,setting,value
"O=C1/C(=C/c2ccccc2)C(NC2CCCCC2)c2ccccc21 (stereo not drawn) [Compound 3, (E)-2-benzylidene-3-(cyclohexylamino)-2,3-dihydro-1H-inden-1-one]",sef expression in dusp6-injected embryos,Dusp6,rescued sef expression to control levels or higher
same,IC50,Dusp3/VHR,> 300 µM
same,IC50,PTP1B,> 300 µM
